Series [1] relates to K562-IMA[r]. As to the kind of experiment: Induction of sensitization to imatinib-induced cytotoxicity in imatinib-resistant human K562-IMA[r] cells assessed as induction of cell death at 10 uM after 72 hrs in presence of 1 uM imatinib by propidium iodide/Triton-X100 dye based FACS analysis. It counts as functional. (In general: In flow cytometry, cells or beads pass a laser one at a time.)

The subject of series [2] is K562-IMA[r]. Kind of series: Cytotoxicity against imatinib-resistant human K562-IMA[r] cells assessed as cell death at 10 uM after 72 hrs by propidium iodide/Triton-X100 dye based FACS analysis.
For series [3], the system named is K562-IMA[r]. As to the kind of experiment: Induction of sensitization to imatinib-induced cytotoxicity in imatinib-resistant human K562-IMA[r] cells assessed as cell death at 0.1 to 10 uM measured after 72 hrs in presence of 1 uM imatinib by propidium iodide/Triton-X100 dye based FACS analysis. It counts as functional.
The target in series [4] is T1, Peroxisome proliferator-activated receptor gamma (Homo sapiens) (UniProt P37231).
T1 sequence (whole entry): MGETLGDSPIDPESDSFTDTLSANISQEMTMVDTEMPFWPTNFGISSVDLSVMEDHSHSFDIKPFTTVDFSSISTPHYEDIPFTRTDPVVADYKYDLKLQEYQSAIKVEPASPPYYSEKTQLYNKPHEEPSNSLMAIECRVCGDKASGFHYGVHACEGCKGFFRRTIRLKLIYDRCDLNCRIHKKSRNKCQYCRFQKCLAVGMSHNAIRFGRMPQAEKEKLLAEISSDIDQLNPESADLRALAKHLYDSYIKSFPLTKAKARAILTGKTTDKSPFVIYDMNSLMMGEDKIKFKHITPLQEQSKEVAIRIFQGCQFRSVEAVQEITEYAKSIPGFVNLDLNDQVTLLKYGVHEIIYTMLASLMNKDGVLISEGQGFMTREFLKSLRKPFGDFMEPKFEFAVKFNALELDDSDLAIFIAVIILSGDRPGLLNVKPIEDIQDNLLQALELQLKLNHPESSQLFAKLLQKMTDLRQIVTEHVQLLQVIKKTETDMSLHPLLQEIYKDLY
Kind of series: Transactivation of Gal4-fused human PPARgamma transfected in COS7 cells co-transfected with pGAL5-TK-pGL3 and pRennilla-CMV assessed as maximum intrinsic activation at 10 uM incubated for 39 hrs by dual luciferase reporter assay relative to pioglitazone. Type of series: cell-based. Background: Reporter assays use an easily measured gene product as a stand-in for the process of interest.

Series [5] is described as follows: Solubility of compound in water at >20 uM. Type of series: physicochemical. The settings on record: buffer.
Series [6] deals with T1, Peroxisome proliferator-activated receptor gamma (Homo sapiens). As to the kind of experiment: Transactivation of Gal4-fused human PPARgamma transfected in COS7 cells co-transfected with pGAL5-TK-pGL3 and pRennilla-CMV assessed as maximum intrinsic activation at 20 uM incubated for 39 hrs by dual luciferase reporter assay. Type of series: cell-based.
In series [7] the test system is K562-IMA[r]. Kind of series: Cytotoxicity against imatinib-resistant human K562-IMA[r] cells assessed as induction of cell death at 10 uM after 72 hrs by propidium iodide/Triton-X100 dye based FACS analysis relative to control.
Series [8] concerns K562-IMA[r]. Kind of series: Induction of sensitization to imatinib induced cytotoxicity in imatinib-resistant human K562-IMA[r] cells assessed as cell death up to 2.5 uM measured after 72 hrs in presence of 1 uM imatinib by propidium iodide/Triton-X100 dye based FACS analysis. It counts as functional.
Series [9] concerns K562-IMA[r]. As to the kind of experiment: Induction of sensitization to imatinib-induced cytotoxicity in imatinib-resistant human K562-IMA[r] cells assessed as gain in cell death rate at 5 uM measured after 72 hrs in presence of 1 uM imatinib by propidium iodide/Triton-X100 dye based FACS analysis relative to imatinib-treated control. Type of series: functional.
Series [10] in a line: Cytotoxicity against human HS5 cells assessed as cell death at 10 uM after 72 hrs by propidium iodide/Triton-X100 dye based FACS analysis.
Another series has as its system K562. As to the kind of experiment: Cytotoxicity against human K562 cells assessed as cell death at 10 uM after 72 hrs by propidium iodide/Triton-X100 dye based FACS analysis. The settings on record: k562, 72 h.
The next series concerns COS-7. As to the kind of experiment: Cytotoxicity against African green monkey COS7 cells assessed as effect on cell metabolic activity at 20 uM after 72 hrs by MTT assay. Type of series: ADME, cell-based. The settings on record: chlorocebus aethiops, cos-7, 72 h.
Series [11] deals with K562-IMA[r]. As to the kind of experiment: Decrease in STAT5 expression in imatinib-resistant human K562-IMA[r] cells at 10 uM after 24 hrs in presence of 1 uM imatinib by Western blot analysis. Type of series: functional, cell-based. A general note: Immunoblotting shows a protein as a band on a membrane.
Series [12] concerns K562-IMA[r]. As to the kind of experiment: Induction of sensitization to imatinib-induced cytotoxicity in imatinib-resistant human K562-IMA[r] cells assessed as induction of cell death at 10 uM after 72 hrs in presence of 1 uM imatinib by propidium iodide/Triton-X100 dye based FACS analysis (reference value: 15%). It counts as functional.
The test system of series [13] is K562-IMA[r]. As to the kind of experiment: Induction of sensitization to imatinib-induced cytotoxicity in imatinib-resistant human K562-IMA[r] cells assessed as induction of cell death measured after 72 hrs in presence of 1 uM imatinib by propidium iodide/Triton-X100 dye based FACS analysis. Type of series: functional.
The nature of series [14]: Solubility of compound in DMSO at 10 uM by microscopic analysis. Type of series: physicochemical.
Series [15] has as its target T2, Peroxisome proliferator-activated receptor gamma (Homo sapiens, UniProt P37231).
T2 sequence (P37231 whole entry): T1 sequence (whole entry)
As to the kind of experiment: Transactivation of Gal4-fused human PPARgamma transfected in COS7 cells co-transfected with pGAL5-TK-pGL3 and pRennilla-CMV incubated for 39 hrs by dual luciferase reporter assay. Type of series: cell-based.

Series [16] deals with T1, Peroxisome proliferator-activated receptor gamma (Homo sapiens). Kind of series: Transactivation of Gal4-fused human PPARgamma transfected in COS7 cells co-transfected with pGAL5-TK-pGL3 and pRennilla-CMV at 20 uM incubated for 39 hrs by dual luciferase reporter assay. It counts as cell-based.

The text below walks through data of ChEMBL document CHEMBL4373734, “Overcoming imatinib resistance in chronic myelogenous leukemia cells using non-cytotoxic cell death modulators” (Eur J Med Chem, 2020).

As a reminder, the EC50 is the midpoint of the concentration-response curve.

Active and inactive are the calls of the source. The rule behind the calls is not given here.

As to `CCc1ccc(CCOc2ccc(CC3SC(=O)NC3=O)cc2)nc1` (stereo not given) [PIOGLITAZONE], in the series on K562-IMA[r] [1], the outcome was Active. In addition, in the series with K562-IMA[r] [2], the Activity result is on record as “Non-Toxic”. Also, the outcome in the series on K562-IMA[r] [3] was inactive.

Take `CCCc1nc2c(Br)cccc2n1Cc1ccc(-c2ccccc2C(N)=O)cc1`: the Intrinsic activity in series [4] was determined as 20.8%. In addition, the results for the solubility entry in series [5] and in series [14] were “Insoluble” and “Soluble”, respectively. Besides, the Intrinsic activity entry in series [6] is “inactive”. The Activity is less than 20% in the series on K562-IMA[r] [7]; 21.4% in the series on K562-IMA[r] [9]; “Non-Toxic” in series [10]; “Non-Toxic” with K562; “Non-Toxic” in the series with COS-7; 62 - 78% in the series on K562-IMA[r] [12]. Moreover, the Activity entry in the series with K562-IMA[r] [13] was “Dose-dependent effect”. Moreover, the result in the series with K562-IMA[r] [8] was inactive. In the series on K562-IMA[r] [11], the result was Active.

On to `CCCc1nc2ccccc2n1Cc1ccc(-c2ccccc2C(N)=O)cc1`, for which the Intrinsic activity in series [4] came out at 39.5%. The solubility entry in [5] is “Insoluble”; in series [14], “Soluble”. The Intrinsic activity result in series [6] was “inactive”. Moreover, the Activity in the series on K562-IMA[r] [7] is less than 20%; with K562-IMA[r] [9] it was 16%; in series [10] it was “Non-Toxic”; in the series on K562, “Non-Toxic”; in the series with COS-7, “Non-Toxic”; in the series on K562-IMA[r] [12], 62 - 78%. Further, in the series on K562-IMA[r] [13], the Activity result is “Dose-dependent effect”. In addition, in the series on K562-IMA[r] [8], the outcome was inactive. Besides, in the series on K562-IMA[r] [11], the result was Active.

The compound `CCCc1nc2ccccc2n1Cc1ccc(-c2ccccc2C(=O)O)cc1` registered an EC50 in [15] of 7.22 µM. In addition, the Intrinsic activity in series [4] is 58.5%. Also, the outcome (in the series on K562-IMA[r] [1]; in series [16]) was Active. Moreover, the Activity result (with K562-IMA[r] [2]; in series [10]; with K562; in the series with COS-7) was “Non-Toxic” in each case. In addition, the solubility result in series [14] is listed as “Soluble”.

Consider `CCCc1nc2c(Br)cccc2n1Cc1ccc(-c2ccccc2C(=O)O)cc1`, for which, in [15], the EC50 is 8.25 µM. The Intrinsic activity in series [4] is 44.9%. Further, the outcome (in the series with K562-IMA[r] [1]; in series [16]) was Active. Also, the Activity entry (in the series with K562-IMA[r] [2]; in [10]; in the series on K562; in the series on COS-7) was “Non-Toxic” in each case. Also, the solubility entry in series [14] was “Soluble”.

Regarding `CCCc1nc2c(Cl)cccc2n1Cc1ccc(-c2ccccc2C(=O)O)cc1`, the EC50 in [15] amounted to 8.67 µM. Besides, the Intrinsic activity in series [4] was 44%. Also, the result (with K562-IMA[r] [1]; in series [16]) was Active. In addition, the Activity result (in the series on K562-IMA[r] [2]; in [10]; in the series on K562; with COS-7) was “Non-Toxic” throughout. Besides, the solubility entry in [14] is “Soluble”.

With `CCCc1nc2c(F)cccc2n1Cc1ccc(-c2ccccc2C(=O)O)cc1`, the response in [15] was half-maximal at 8.66 µM (EC50). Moreover, the Intrinsic activity in series [4] came to 44.2%. The result (in the series on K562-IMA[r] [1]; in series [16]) was Active. Further, the Activity result (in the series on K562-IMA[r] [2]; in series [10]; with K562; in the series with COS-7) was “Non-Toxic” in each case. Further, in series [14], the solubility result is given as “Soluble”.
